pIC50: −log10 of the molar value. Activity calls are given as the source filed them. The rule behind the calls is not given here. Starred links: 1 amine or outer side, 2 acyl side, 3 side chain; linkers in the order of their positions; H or OH if unused. Positions of bridges follow the written chain, without caps; N, C: chain ends. Non-standard residues stand in square brackets, D forms with d. Residues, ends and D or L forms follow the SMILES beside them. Chains are numbered I, II in the order given. Actinocin(1to9) = Cc1c2oc3c(C)ccc(C(=O)[*:2])c3nc-2c(C(=O)[*:1])c(N)c1=O; NMeV = CN[C@H](C(=O)O)C(C)C; Sar = CNCC(=O)O
Columns and labels:
K562 [1] = experiment: Inhibition of DNA synthesis in human K562 cells assessed as [14C]thymidine incorporation at 4 uM after 120 mins; format: functional; parameters: scale not given: the % may be the effect or the level left
K562 [2] = experiment: Inhibition of transcription in human K562 cells at 4 uM after 120 mins; format: functional; parameters: scale not given: the % may be the effect or the level left
K562 [3] = experiment: Inhibition of protein synthesis in human K562 cells assessed as [14C]L-leucine incorporation at 5 uM after 60 mins; format: functional; parameters: scale not given: the % may be the effect or the level left
K562 [4] = experiment: Cytotoxicity against human K562 cells; format: functional, cell-based
Jurkat [5] = experiment: Cytotoxicity against human Jurkat cells; format: functional, cell-based
K562 [6] = experiment: Inhibition of protein synthesis in human K562 cells assessed as [14C]L-leucine incorporation at 1.25 uM after 120 mins; format: functional; parameters: scale not given: the % may be the effect or the level left
K562 [7] = experiment: Inhibition of RNA synthesis in human K562 cells assessed as inhibition of [14C]uridine incorporation upto 5 uM after 120 mins; format: functional, cell-based
K562 [8] = experiment: Inhibition of DNA synthesis in human K562 cells assessed as [14C]thymidine incorporation at 1.25 uM after 60 mins; format: functional; parameters: scale not given: the % may be the effect or the level left
K562 [9] = experiment: Inhibition of DNA synthesis in human K562 cells assessed as [14C]thymidine incorporation at 5 uM after 60 mins; format: functional; parameters: scale not given: the % may be the effect or the level left
K562 [10] = experiment: Inhibition of protein synthesis in human K562 cells assessed as [14C]L-leucine incorporation at 5 uM after 120 mins; format: functional; parameters: scale not given: the % may be the effect or the level left
MCF7 [11] = experiment: Cytotoxicity against human MCF7 cells; format: functional, cell-based
HeLa [12] = experiment: Cytotoxicity against human HeLa cells; format: functional, cell-based
K562 [13] = experiment: Inhibition of cellular respiration in human K562 cells at 1.25 to 5 uM; format: functional, cell-based
K562 [14] = experiment: Inhibition of protein synthesis in human K562 cells assessed as inhibition of [14C]L-leucine incorporation at 1.25 uM after 60 mins; format: functional, cell-based
K562 [15] = experiment: Inhibition of DNA synthesis in human K562 cells assessed as [14C]thymidine incorporation at 5 uM after 120 mins; format: functional; parameters: scale not given: the % may be the effect or the level left
K562 [16] = experiment: Inhibition of DNA synthesis in human K562 cells assessed as [14C]thymidine incorporation at 1.25 uM after 120 mins; format: functional; parameters: scale not given: the % may be the effect or the level left
K562 [17] = experiment: Inhibition of transcription in human K562 cells at 0.47 uM after 120 mins; format: functional; parameters: scale not given: the % may be the effect or the level left
K562 [18] = experiment: Inhibition of DNA synthesis in human K562 cells assessed as [14C]thymidine incorporation at 0.47 uM after 120 mins; format: functional; parameters: scale not given: the % may be the effect or the level left
K562 [19] = experiment: Inhibition of protein synthesis in human K562 cells assessed as [14C]L-leucine incorporation at 0.47 uM after 120 mins; format: functional; parameters: scale not given: the % may be the effect or the level left
MCF7 [20] = experiment: Cytotoxicity against human MCF7 cells at <=100 uM; format: functional, cell-based
Jurkat [21] = experiment: Cytotoxicity against human Jurkat cells at <=100 uM; format: functional, cell-based
K562 [22] = experiment: Cytotoxicity against human K562 cells at <=100 uM; format: functional, cell-based
HeLa [23] = experiment: Cytotoxicity against human HeLa cells at <=100 uM; format: functional, cell-based
K562 [24] = experiment: Inhibition of transcription in human K562 cells at 3.5 uM after 120 mins; format: functional; parameters: scale not given: the % may be the effect or the level left
K562 [25] = experiment: Inhibition of protein synthesis in human K562 cells assessed as [14C]L-leucine incorporation at 3.5 uM after 120 mins; format: functional; parameters: scale not given: the % may be the effect or the level left

SMILES: Cc1c2oc3c(C)ccc(C(=O)N[C@@H]4C(=O)N[C@H](C(C)C)C(=O)N5CCC[C@H]5C(=O)N(C)CC(=O)N(C)[C@@H](C(C)C)C(=O)O[C@@H]4C)c3nc-2c(C(=O)N[C@@H]2C(=O)N[C@H](C(C)C)C(=O)N3CCC[C@H]3C(=O)N(C)CC(=O)N(C)[C@@H](C(C)C)C(=O)O[C@@H]2C)c(N)c1=O [DACTINOMYCIN] (I: T[dV]P[Sar][NMeV] / II: T[dV]P[Sar][NMeV]; ester I:1-I:C, II:1-II:C; linker I:N-II:N via Actinocin(1to9))
- Activity (K562 [1]): 58%
- Activity (K562 [2]): 2%

SMILES: Cc1cc(O)cc(O)c1C(=O)O[C@@H]1C[C@@]2(C)C1=C(C=O)[C@@H](O)[C@@H]1CC(C)(C)C[C@@H]12 [DEHYDROARMILLYLORSELLINATE]
- Activity (K562 [3]): 76%
- pIC50 (K562 [4]): 5.30
- pIC50 (Jurkat [5]): 4.77
- Activity (K562 [6]): 96%
- inhibition (K562 [7]): inactive
- Activity (K562 [8]): 90%
- Activity (K562 [9]): 70%
- Activity (K562 [10]): 35%
- pIC50 (MCF7 [11]): 5.10
- pIC50 (HeLa [12]): 4.82
- inhibition (K562 [13]): inactive
- inhibition (K562 [14]): inactive
- Activity (K562 [15]): 35%
- Activity (K562 [16]): 71%

SMILES: COc1cccc2c1C(=O)c1c(O)c3c(c(O)c1C2=O)C[C@@](O)(C(=O)CO)C[C@@H]3O[C@H]1C[C@H](N)[C@H](O)[C@H](C)O1 [DOXORUBICIN]
- Activity (K562 [17]): 79%
- Activity (K562 [18]): 46%
- Activity (K562 [19]): 89%

SMILES: COc1cc(O)c(C(=O)O[C@@H]2C[C@]3(C)[C@H]4CC(C)(CO)C[C@@]4(O)C=C(CO)[C@]23O)c(C)c1Cl (stereo not given in full)
- Activity (MCF7 [20]): Not toxic
- Activity (Jurkat [21]): Not toxic
- Activity (K562 [22]): Not toxic
- Activity (HeLa [23]): Not toxic

SMILES: C[C@@H]1C[C@@H]([C@H](O)CC2CC(=O)NC(=O)C2)C(=O)[C@@H](C)C1 [CYCLOHEXIMIDE]
- Activity (K562 [24]): 99%
- Activity (K562 [25]): 26%

SMILES: COc1cc(O)c(C(=O)O[C@@H]2C[C@]3(C)[C@H]4CC(C)(C)C[C@H]4C=C(C=O)[C@]23O)c(C)c1Cl [ARMILLARIDIN]
- pIC50 (K562 [4]): 5.05
- pIC50 (Jurkat [5]): 5.52
- pIC50 (MCF7 [11]): 5.11
- pIC50 (HeLa [12]): 5.04

SMILES: COc1cc(O)c(C(=O)O[C@@H]2C[C@]3(C)[C@H]4CC(C)(C)C[C@H]4[C@H](O)[C@@H](CO)[C@]23O)c(C)c1Cl
- pIC50 (K562 [4]): 4.60
- pIC50 (Jurkat [5]): 4.88
- pIC50 (MCF7 [11]): 4.58
- pIC50 (HeLa [12]): 4.45

SMILES: COc1cc(O)c(C(=O)O[C@@H]2C[C@]3(C)[C@H]4CC(C)(C)C[C@H]4C=C(CO)[C@]23O)c(C)c1Cl
- pIC50 (K562 [4]): 4.41
- pIC50 (Jurkat [5]): 4.98
- pIC50 (MCF7 [11]): 4.67
- pIC50 (HeLa [12]): 4.40

SMILES: COc1cc(C)c(C(=O)O[C@@H]2C[C@]3(C)[C@H]4CC(C)(C)C[C@H]4C=C(C=O)[C@]23O)c(O)c1 [ARMILLARIN]
- pIC50 (K562 [4]): 5.00
- pIC50 (MCF7 [11]): 4.94
- pIC50 (HeLa [12]): 4.78

SMILES: Cc1c(Cl)c(O)cc(O)c1C(=O)O[C@@H]1C[C@]2(C)[C@H]3CC(C)(C)C[C@@]3(O)C=C(CO)[C@]12O
- pIC50 (K562 [4]): < 4.00
- pIC50 (Jurkat [5]): 4.33
- pIC50 (MCF7 [11]): < 4.00
- pIC50 (HeLa [12]): < 4.00

SMILES: COc1cc(O)c(C(=O)O[C@@H]2C[C@]3(C)[C@H]4CC(C)(C)C[C@H]4C=C(C=O)[C@]23OC)c(C)c1Cl
- pIC50 (K562 [4]): 4.69
- pIC50 (Jurkat [5]): 5.39
- pIC50 (MCF7 [11]): 5.17
- pIC50 (HeLa [12]): 4.73

SMILES: COc1cc(O)c(C(=O)OCC2=C[C@]3(O)CC(C)(C)[C@H](O)[C@@H]3[C@@]3(C)C[C@@H](O)[C@@]23O)c(C)c1Cl
- Activity (MCF7 [20]): Not toxic
- Activity (Jurkat [21]): Not toxic
- Activity (K562 [22]): Not toxic
- Activity (HeLa [23]): Not toxic

SMILES: Cc1cc(O)cc(O)c1C(=O)O[C@@H]1C[C@]2(C)[C@H]3CC(C)(C)C[C@@]3(O)C=C(CO)[C@]12O
- Activity (MCF7 [20]): Not toxic
- Activity (Jurkat [21]): Not toxic
- Activity (K562 [22]): Not toxic
- Activity (HeLa [23]): Not toxic

SMILES: COc1cc(O)c(C(=O)O[C@@H]2C[C@]3(C)[C@H]4[C@@H](O)C(C)(C)C[C@@]4(O)C=C(CO)[C@]23O)c(C)c1Cl
- Activity (MCF7 [20]): Not toxic
- Activity (Jurkat [21]): Not toxic
- Activity (K562 [22]): Not toxic
- Activity (HeLa [23]): Not toxic

From ChEMBL document CHEMBL1759949, “In vitro cytotoxicity of melleolide antibiotics: structural and mechanistic aspects” (Bioorg Med Chem Lett, 2011)
